Results on 25 compounds are retold here after patent US8088761B2, “Enzyme inhibitors” (Cancer Research Technology Limited, priority 2005, dated 2012).

A value given as a limit tells only on which side of the number the result lay.

One assay concerns the target T1, Aurora-A (Homo sapiens, UniProt O14965).
T1 sequence (O14965 1-403): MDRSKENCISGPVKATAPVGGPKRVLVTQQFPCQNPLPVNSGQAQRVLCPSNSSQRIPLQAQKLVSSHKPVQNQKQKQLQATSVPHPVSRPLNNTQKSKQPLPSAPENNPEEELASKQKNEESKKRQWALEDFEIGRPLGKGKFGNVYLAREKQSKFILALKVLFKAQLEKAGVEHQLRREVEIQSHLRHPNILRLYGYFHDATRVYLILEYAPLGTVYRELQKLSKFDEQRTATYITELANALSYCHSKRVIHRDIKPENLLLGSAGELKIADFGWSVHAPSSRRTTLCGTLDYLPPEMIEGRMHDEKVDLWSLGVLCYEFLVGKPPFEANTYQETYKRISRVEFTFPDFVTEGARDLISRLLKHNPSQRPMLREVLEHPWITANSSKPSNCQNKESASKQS
Description: Flashplate Aurora A enzyme inhibition assay. It counts as biochemical. The conditions noted are these: Flashplate assay; IC50 range; read-out: Aurora-A inhibition. In outline: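 This is a radiometric Flashplate format: plates were precoated with DTT, and compound (in 2% DMSO) was mixed with kinase buffer (pH 7.5 Tris, MgCl2, NaCl) containing 1 mM MBP, 20 μM ATP and ^33P-ATP. The reaction was started with 250 ng Aurora-A per well and incubated 2 h at RT. It was then stopped by 10 mM sodium pyrophosphate washing, and plates were scintillation-counted.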

A further assay relates to HCT116 cells. Description: Cell viability assay (MTT) in HCT116 cell line. It is filed as cell-based. To be noted: Homo sapiens, HCT-116, 72 hrs, IC50 range, read-out: HCT116 cell growth inhibition. In outline: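 MTT read-out (4 hrs, 37 °C, DMSO extraction) following 72 hrs of treatment with 0-50 μM Aurora inhibitor. HCT116 cells were plated a day earlier and tested in triplicate; IC50 derived from the curve.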

`CC(c1ccccc1)N1CCN(c2c(Br)cnc3[nH]c(-c4ccc(N5CCN(C)CC5)cc4)nc23)CC1` (centres unmarked) [Example 71, 6-Bromo-2-[4-(4-methyl-piperazin-1-yl)-phenyl]-7-[4-(1-phenyl-ethyl)-piperazin-1-yl]-3H-imidazo[4,5-b]pyridine]: the IC50 at Aurora-A and in the assay with HCT116 cells was below 500 nM throughout.

On to `COc1ccc(-c2nc3c(N4CCN(CC5CC5)CC4)c(Br)cnc3[nH]2)cc1` [Example 73, 6-Bromo-7-(4-cyclopropylmethyl-piperazin-1-yl)-2-(4-methoxy-phenyl)-3H-imidazo[4,5-b]pyridine], for which the IC50 at Aurora-A and with HCT116 cells was 500 to 2000 nM in each case.

`COc1ccc(-c2nc3c(N4CCN(Cc5cc(C)on5)CC4)c(Br)cnc3[nH]2)cc1` [Example 74, 6-Bromo-2-(4-methoxy-phenyl)-7-[4-(5-methyl-isoxazol-3-ylmethyl)-piperazin-1-yl]-3H-imidazo[4,5-b]pyridine]: the IC50 at Aurora-A and in the assay with HCT116 cells was below 500 nM in each case.

As for `O=C(CN1CCN(c2c(Cl)cnc3[nH]c(-c4ccc(CN5CCOCC5)cc4)nc23)CC1)Nc1nccs1` [Example 76, 2-{4-[6-Chloro-2-(4-morpholin-4-ylmethyl-phenyl)-3H-imidazo[4,5-b]pyridin-7-yl]-piperazin-1-yl}-N-thiazol-2-yl-acetamide], the IC50 on Aurora-A and with HCT116 cells was below 500 nM throughout.

As to `Brc1cnc2[nH]c(-c3ccc(Cn4cccn4)cc3)nc2c1N1CCN(Cc2ccncc2)CC1` [Example 78, 2-(4-((1H-Pyrazol-1-yl)methyl)phenyl)-6-bromo-7-(4-(pyridin-4-ylmethyl)piperazin-1-yl)-3H-imidazo[4,5-b]pyridine], the IC50 at Aurora-A and with HCT116 cells was below 500 nM throughout.

In the case of `Clc1cnc2[nH]c(-c3ccc(CN4CCOCC4)cc3)nc2c1N1CCN(Cc2cccnc2)CC1` [Example 79, 6-Chloro-2-(4-morpholin-4-ylmethyl-phenyl)-7-(4-pyridin-3-ylmethyl-piperazin-1-yl)-3H-imidazo[4,5-b]pyridine], the IC50 at Aurora-A and with HCT116 cells was below 500 nM each time.

`Cc1cc(CN2CCN(c3c(Cl)cnc4[nH]c(-c5ccc(CN6CCOCC6)cc5)nc34)CC2)no1` [Example 80, 6-Chloro-7-[4-(5-methyl-isoxazol-3-ylmethyl)-piperazin-1-yl]-2-(4-morpholin-4-ylmethyl-phenyl)-3H-imidazo[4,5-b]pyridine]: the values for the IC50 on Aurora-A and with HCT116 cells were below 500 nM and 500 to 2000 nM, respectively.

`COc1cccc(-c2nc3c(N4CCN(Cc5cc(C)on5)CC4)c(Br)cnc3[nH]2)c1` [Example 81, 6-Bromo-2-(3-methoxy-phenyl)-7-[4-(5-methyl-isoxazol-3-ylmethyl)-piperazin-1-yl]-3H-imidazo[4,5-b]pyridine]: the IC50 is below 500 nM on Aurora-A and 500 to 2000 nM in the assay with HCT116 cells.

Consider `Brc1cnc2[nH]c(-c3ccc(OCCN4CCOCC4)cc3)nc2c1N1CCN(Cc2ccncc2)CC1` [Example 82, 6-Bromo-2-[4-(2-morpholin-4-yl-ethoxy)-phenyl]-7-(4-pyridin-4-ylmethyl-piperazin-1-yl)-3H-imidazo[4,5-b]pyridine], for which the IC50 at Aurora-A and with HCT116 cells was below 500 nM each time.

As to `Clc1cnc2[nH]c(-c3ccc(Cn4cccn4)cc3)nc2c1N1CCN(Cc2ccncc2)CC1` [Example 83, 2-(4-((1H-Pyrazol-1-yl)methyl)phenyl)-6-chloro-7-(4-(pyridin-4-ylmethyl)piperazin-1-yl)-3H-imidazo[4,5-b]pyridine], the IC50 at Aurora-A and in the assay on HCT116 cells was below 500 nM throughout.

Take `O=C(CN1CCN(c2c(Cl)cnc3[nH]c(-c4ccc(Cn5cccn5)cc4)nc23)CC1)Nc1nccs1` [Example 84, 2-(4-(2-(4-((1H-Pyrazol-1-yl)methyl)phenyl)-6-chloro-3H-imidazo[4,5-b]pyridin-7-yl)piperazin-1-yl)-N-(thiazol-2-yl)acetamide]: the IC50 at Aurora-A and in the assay on HCT116 cells was below 500 nM each time.

For `Clc1ccc(CN2CCN(c3c(Br)cnc4[nH]c(-c5ccc(Cn6cccn6)cc5)nc34)CC2)cc1` [Example 85, 2-(4-((1H-Pyrazol-1-yl)methyl)phenyl)-6-bromo-7-(4-(4-chlorobenzyl)piperazin-1-yl)-3H-imidazo[4,5-b]pyridine], the IC50 at Aurora-A and in the assay with HCT116 cells was below 500 nM throughout.

Take `CN1CCN(c2ccc(-c3nc4c(N5CCN(Cc6ccc(Cl)cc6)CC5)c(Br)cnc4[nH]3)cc2)CC1` [Example 86, 6-Bromo-7-[4-(4-chloro-benzyl)-piperazin-1-yl]-2-[4-(4-methyl-piperazin-1-yl)-phenyl]-3H-imidazo[4,5-b]pyridine]: the IC50 on Aurora-A and in the assay with HCT116 cells was below 500 nM in each case.

For the compound `O=C(CN1CCN(c2c(Cl)cnc3[nH]c(-c4ccc5c(c4)OCCO5)nc23)CC1)Nc1nccs1` [Example 87, 2-{4-[6-Chloro-2-(2,3-dihydro-benzo[1,4]dioxin-6-yl)-3H-imidazo[4,5-b]pyridin-7-yl]-piperazin-1-yl}-N-thiazol-2-yl-acetamide], the IC50 was below 500 nM on Aurora-A and 500 to 2000 nM in the assay with HCT116 cells.

Regarding `CN(C)c1ccc(-c2nc3c(N4CCN(CC(=O)N(C)c5nccs5)CC4)c(Br)cnc3[nH]2)cc1` [Example 89, 2-(4-(6-Bromo-2-(4-(dimethylamino)phenyl)-3H-imidazo[4,5-b]pyridin-7-yl)piperazin-1-yl)-N-methyl-N-(thiazol-2-yl)acetamide], the IC50 on Aurora-A and with HCT116 cells was below 500 nM throughout.

For the compound `CN(C)c1ccc(-c2nc3c(N4CCC(CC(=O)Nc5nccs5)CC4)c(Br)cnc3[nH]2)cc1` [Example 90, 2-{1-[6-Bromo-2-(4-dimethylamino-phenyl)-3H-imidazo[4,5-b]pyridin-7-yl]-piperidin-4-yl}-N-thiazol-2-yl-acetamide], the figures for the IC50 at Aurora-A and with HCT116 cells were below 500 nM and 500 to 2000 nM, respectively.

Turning to `NCc1cccc(-c2nc3c(N4CCN(Cc5cccnc5)CC4)c(Br)cnc3[nH]2)c1` [Example 92, (3-(6-Bromo-7-(4-(pyridin-3-ylmethyl)piperazin-1-yl)-3H-imidazo[4,5-b]pyridin-2-yl)phenyl)methanamine], the IC50 was below 500 nM on Aurora-A and 500 to 2000 nM in the assay with HCT116 cells.

For `COc1ccc(-c2nc3c(N4CCN(Cc5cccnc5)CC4)c(Br)cnc3[nH]2)cn1` [Example 94, 6-Bromo-2-(6-methoxypyridin-3-yl)-7-(4-(pyridin-3-ylmethyl)piperazin-1-yl)-3H-imidazo[4,5-b]pyridine], the IC50 on Aurora-A was below 500 nM; in the assay with HCT116 cells it was 2000 to 50000 nM.

For the compound `CC(c1ccncc1)N1CCN(c2c(Br)cnc3[nH]c(-c4cccc(CN5CCN(C)CC5)c4)nc23)CC1` (centres unmarked) [Example 95, 6-Bromo-2-(3-((4-methylpiperazin-1-yl)methyl)phenyl)-7-(4-(1-(pyridin-4-yl)ethyl)piperazin-1-yl)-3H-imidazo[4,5-b]pyridine], the IC50 was below 500 nM at Aurora-A and 500 to 2000 nM in the assay on HCT116 cells.

`CN1CCN(Cc2ccc(-c3nc4c(N5CCN(Cc6cccnc6)CC5)c(Br)cnc4[nH]3)cc2)CC1` [Example 96, 6-Bromo-2-(4-((4-methylpiperazin-1-yl)methyl)phenyl)-7-(4-(pyridin-3-ylmethyl)piperazin-1-yl)-3H-imidazo[4,5-b]pyridine]: the IC50 at Aurora-A is below 500 nM; with HCT116 cells, 500 to 2000 nM.

On to `CC(C)(C)OC(=O)NCCc1nc2c(N3CCN(Cc4cccnc4)CC3)c(Br)cnc2[nH]1` [Example 97, tert-Butyl 2-(6-bromo-7-(4-(pyridin-3-ylmethyl)piperazin-1-yl)-3H-imidazo[4,5-b]pyridin-2-yl)ethylcarbamate], for which the IC50 at Aurora-A is below 500 nM; in the assay with HCT116 cells, 2000 to 50000 nM.

Regarding `NCCc1nc2c(N3CCN(Cc4cccnc4)CC3)c(Br)cnc2[nH]1` [Example 98, 2-(6-Bromo-7-(4-(pyridin-3-ylmethyl)piperazin-1-yl)-3H-imidazo[4,5-b]pyridin-2-yl)ethanamine], the IC50 on Aurora-A lay within 2000 to 10000 nM; in the assay on HCT116 cells, 2000 to 50000 nM.

Regarding `CC(C)(C)OC(=O)NCc1nc2c(N3CCN(Cc4cccnc4)CC3)c(Br)cnc2[nH]1` [Example 99, tert-Butyl (6-bromo-7-(4-(pyridin-3-ylmethyl)piperazin-1-yl)-3H-imidazo[4,5-b]pyridin-2-yl)methylcarbamate], the values for the IC50 at Aurora-A and in the assay on HCT116 cells were 2000 to 10000 nM and 2000 to 50000 nM, respectively.

Regarding `NCc1nc2c(N3CCN(Cc4cccnc4)CC3)c(Br)cnc2[nH]1` [Example 100, (6-Bromo-7-(4-(pyridin-3-ylmethyl)piperazin-1-yl)-3H-imidazo[4,5-b]pyridin-2-yl)methanamine], the IC50 at Aurora-A is 2000 to 10000 nM; in the assay with HCT116 cells it was 2000 to 50000 nM.

With `CN1CCN(c2ccc(-c3nc4c(N5CCN(Cc6cccnc6)CC5)c(Br)cnc4[nH]3)cc2)CC1` [Example 101, 6-Bromo-2-(4-(4-methylpiperazin-1-yl)phenyl)-7-(4-(pyridin-3-ylmethyl)piperazin-1-yl)-3H-imidazo[4,5-b]pyridine], the IC50 on Aurora-A is below 500 nM; in the assay on HCT116 cells, 500 to 2000 nM.
